The source of these data is article PMC5755735, “Discovery of indolylpiperazinylpyrimidines with dual-target profiles at adenosine A2A and dopamine D2 receptors for Parkinson's disease treatment” (PLoS ONE, 2018).

Counter-ions that a name gives are not always drawn. Bounds are passed on as bounds.

One assay concerns the target hA2A. Conditions: read-out: Ki hA2A; cited from earlier work.
In assay [1] the target is T1, human A1 receptors expressed in CHO cells (Homo sapiens, UniProt P30542).
T1 sequence (P30542 1-326): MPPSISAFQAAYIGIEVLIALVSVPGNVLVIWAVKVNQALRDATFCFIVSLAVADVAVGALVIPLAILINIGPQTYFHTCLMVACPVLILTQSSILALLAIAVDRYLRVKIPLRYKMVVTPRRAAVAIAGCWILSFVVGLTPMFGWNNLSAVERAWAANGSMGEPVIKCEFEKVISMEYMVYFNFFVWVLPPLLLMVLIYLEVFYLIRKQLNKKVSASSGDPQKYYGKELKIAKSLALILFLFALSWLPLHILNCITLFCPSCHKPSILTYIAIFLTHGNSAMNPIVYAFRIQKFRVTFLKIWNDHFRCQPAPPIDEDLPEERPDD
The experiment in a line: competition binding at human A1 adenosine receptors ([3H]CCPA displacement). Particulars: displacement of [3H]CCPA, 95% confidence limits, n = 3–6, read-out: Ki hA1. How it is done: (§1) A two-step procedure was adopted to prepare membrane for radioligand binding from cells stably transfected with human adenosine receptor subtypes (hA1, hA2A and hA3 expressed on CHO cells). Firstly, cell fragments and nuclei were removed by using low-speed centrifugation (1,000 g for 10 min). After that, crude membrane fraction from supernatant was then sedimented at 100,000 g for 30 min. The membrane pellet was subsequently re-suspended in the specific binding buffer, frozen in liquid nitrogen and stored at -80°C. For measurement of adenylyl cyclase activity in the hA2B receptors, one-step centrifugation procedure was used; the homogenate was sedimented for 30 min at 54,000 g. The so-obtained crude membrane pellet was re-suspended in 50 mM Tris/HCl, pH 7.4 and used for the adenylyl cyclase assay immediately.
(§2) Non-specific binding was determined using theophylline 1 mM. […] Non-specific binding was determined using N^6-R-phenylisopropyl adenosine (R-PIA) 100 μM. ^41 The binding of [^3H]HEMADO to CHO cells transfected with hA3 adenosine receptors was carried out as described earlier. […] Non-specific binding was determined using R-PIA 100 μM.
(§3) The assay mixture was then filtered through the built-in filter at the bottom of the 96-well microplate filtration system (Millipore Multiscreen MAFC) and washed three times with 200 μL of cold buffer. After addition of 20 μL of scintillator to the dried filter plates, the filter bound radioactivity was counted on a Wallac Micro-Beta counter. All Ki values were calculated by non-linear curve fitting with the program SCTFIT [45].
A general note: Displacement assays read how much labelled ligand stays bound in the presence of the test substance.

The target of assay [2] is T2, human A3 receptors expressed in CHO cells (Homo sapiens, UniProt P0DMS8).
T2 sequence (P0DMS8 1-318): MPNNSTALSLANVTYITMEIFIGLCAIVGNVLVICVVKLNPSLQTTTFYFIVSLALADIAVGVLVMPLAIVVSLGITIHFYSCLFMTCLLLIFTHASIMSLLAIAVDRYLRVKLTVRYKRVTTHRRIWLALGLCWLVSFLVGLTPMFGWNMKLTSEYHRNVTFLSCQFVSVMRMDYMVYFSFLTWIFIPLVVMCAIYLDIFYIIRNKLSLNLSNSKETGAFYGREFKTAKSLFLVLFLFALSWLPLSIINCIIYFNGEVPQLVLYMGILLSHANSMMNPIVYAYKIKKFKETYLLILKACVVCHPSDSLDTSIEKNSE
Nature of the assay: competition binding at human A3 adenosine receptors ([3H]HEMADO displacement). Conditions: displacement of [3H]HEMADO, 95% confidence limits, n = 3–6, read-out: Ki hA3. As for the experimental part:
as §1, §2, §3

Assay [3] has as its target T3, human A2B receptors expressed in CHO cells (Homo sapiens, UniProt P29275).
T3 sequence (P29275 1-332): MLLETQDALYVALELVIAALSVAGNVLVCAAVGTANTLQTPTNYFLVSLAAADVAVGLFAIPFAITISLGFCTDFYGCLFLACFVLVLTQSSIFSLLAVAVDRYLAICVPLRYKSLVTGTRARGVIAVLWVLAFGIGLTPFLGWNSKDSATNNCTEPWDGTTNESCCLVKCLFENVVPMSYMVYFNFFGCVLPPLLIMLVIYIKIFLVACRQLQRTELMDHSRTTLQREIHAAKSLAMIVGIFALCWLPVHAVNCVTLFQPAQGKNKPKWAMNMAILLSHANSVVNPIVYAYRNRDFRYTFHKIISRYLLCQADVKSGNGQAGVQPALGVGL
The experiment in a line: inhibition of NECA-stimulated adenylyl cyclase activity at hA2B.
Procedure: The membranes were incubated with about 150,000 cpm of [α-^32P]adenosine triphosphate ([α-^32P]ATP) and test compounds in different concentrations for 20 min. A non-linear regression analysis was applied to calculate the IC50 of the adenylyl cyclase activity assay. From the IC50 values, Ki values were then calculated using the Cheng and Prusoff equation [46].

Assay [4] deals with human A2A receptors expressed in CHO cells (Homo sapiens, UniProt P29274). The experiment in a line: competition binding at human A2A adenosine receptors ([3H]NECA displacement). Conditions: for Ki: displacement of [3H]NECA, CHO cells, 95% confidence limits, n = 3–6, read-out: Ki hA2A; for hA1/hA2A / hA3/hA2A: selectivity ratio of Ki values. As for the experimental part:
as §1, §2, §3

The next assay concerns the target D2 receptor. Conditions: competition binding experiments with [3H]spiperone; cited from earlier work.
Assay [5] deals with T2, human A3 receptors expressed in CHO cells. More on the design: method as in PMID 17126322. Conditions: read-out: KD of radioligand at hA3; cited from earlier work.

Chain of human A2A receptors expressed in CHO cells (P29274 whole entry): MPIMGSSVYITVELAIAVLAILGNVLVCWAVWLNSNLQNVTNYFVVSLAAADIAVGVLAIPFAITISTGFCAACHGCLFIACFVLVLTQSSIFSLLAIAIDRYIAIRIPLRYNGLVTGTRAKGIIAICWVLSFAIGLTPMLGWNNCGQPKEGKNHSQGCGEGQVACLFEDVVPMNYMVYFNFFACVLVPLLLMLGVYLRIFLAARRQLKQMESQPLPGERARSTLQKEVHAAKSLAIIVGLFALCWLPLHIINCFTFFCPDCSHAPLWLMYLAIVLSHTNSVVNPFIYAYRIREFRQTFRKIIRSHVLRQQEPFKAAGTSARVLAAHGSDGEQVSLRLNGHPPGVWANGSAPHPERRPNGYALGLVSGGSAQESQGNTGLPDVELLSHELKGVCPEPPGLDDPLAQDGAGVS

Regarding `CCn1c(=O)c2c(nc(/C=C/c3ccc(OC)c(OC)c3)n2C)n(CC)c1=O` [KW-6002], the inhibition constant Ki – broadly, the dissociation constant of the complex between target and ligand, obtained from inhibition or displacement – on hA2A was 12 nM.

Regarding `Cc1cc(C)nc(N2CCN(C(=O)Cc3c[nH]c4ccccc34)CC2)n1` [Compound 18, 1‐[4‐(4,6‐Dimethylpyrimidin‐2‐yl)piperazin‐1‐yl]‐2‐(1H‐indol‐3‐yl)ethan‐1‐one], the inhibition constant (Ki) in assay [1] was above 100 µM; in assay [2], above 30 µM; in assay [3], above 20 µM; in assay [4], 27.6 µM. For the same compound, the hA1/hA2A in assay [4] is above 4. The hA3/hA2A in assay [4] is recorded as above 1. For the same compound, in assay [4] (versus compound 6), the “fold decrease in hA2A affinity” value is 3.2 fold.

Turning to `Cc1cc(C)nc(N2CCN(C(=O)c3cc4cccc([N+](=O)[O-])c4[nH]3)CC2)n1` [Compound 25, {2‐[4‐(4,6‐Dimethylpyrimidin‐2‐yl)piperazine‐1‐carbonyl]‐1H‐indol‐7‐yl}azinic acid], the inhibition constant Ki is 4.82 µM in assay [1], above 30 µM in assay [2], above 20 µM in assay [3] and 29.7 µM in assay [4]. The hA1/hA2A in assay [4] was 0.16. Also, in assay [4], the hA3/hA2A is recorded as above 1.

In the case of `Cc1cc(C)nc(N2CCN(Cc3c[nH]c4ccccc34)CC2)n1` [Compound 9, 3‐{[4‐(4,6‐Dimethylpyrimidin‐2‐yl)piperazin‐1‐yl]methyl}‐1H‐indole], the Ki in assay [1] was above 100 µM; in assay [2], above 30 µM; in assay [3], above 20 µM; in assay [4], above 30 µM.

On to `CCCN(CCc1ccccc1)C1CCc2c(O)cccc2C1` (racemic) [(±)-PPHT.HCl, (±)-2-(N-phenethyl-N-propyl)amino-5-hydroxytetralin hydrochloride], for which, at D2 receptor, the inhibitory constant (Ki) was 13.3 nM.

On to `COc1cccc2[nH]cc(C(=O)N3CCN(c4nc(C)cc(C)n4)CC3)c12` [Compound 13, 3‐[4‐(4,6‐Dimethylpyrimidin‐2‐yl)piperazine‐1‐carbonyl]‐4‐methoxy‐1H‐indole], for which the Ki is above 100 µM in assay [1], above 30 µM in assay [2], above 20 µM in assay [3] and 18.8 µM in assay [4]. The hA1/hA2A in assay [4] is on record as above 5. Moreover, the hA3/hA2A in assay [4] is reported as above 2.

Regarding `Cc1cc(C)nc(N2CCN(C(=O)c3cc4ccccc4[nH]3)CC2)n1` [Compound 21, 2‐[4‐(4,6‐Dimethylpyrimidin‐2‐yl)piperazine‐1‐carbonyl]‐1H‐indole], the inhibition constant (Ki) is above 100 µM in assay [1], above 100 µM in assay [2], above 20 µM in assay [3] and above 100 µM in assay [4].

For `Cc1cc(C)nc(N2CCN(C(=O)c3c[nH]c4ccc(Cl)cc34)CC2)n1` [Compound 16, 5‐Chloro‐3‐[4‐(4,6‐dimethylpyrimidin‐2‐yl)piperazine‐1‐carbonyl]‐1H‐indole], the Ki in assay [1] is above 100 µM; in assay [2] it was 19.5 µM; in assay [3], above 20 µM; in assay [4], 15.5 µM. The hA1/hA2A in assay [4] is recorded as above 7. Besides, in assay [4], the hA3/hA2A was found to be 1.26.

For `CCCCC#Cc1nc(NC)c2ncn([C@@H]3O[C@H](CO)[C@@H](O)[C@H]3O)c2n1` [[^3H]HEMADO, [^3H]-2-hexyn-1-yl-N^6-methyladenosine], the Kd (commonly the constant that tells how readily two partners part at equilibrium) in assay [5] is 1.1 nM.

Turning to `COc1ccc2[nH]cc(C(=O)N3CCN(c4nc(C)cc(C)n4)CC3)c2c1` [Compound 14, 3‐[4‐(4,6‐Dimethylpyrimidin‐2‐yl)piperazine‐1‐carbonyl]‐5‐methoxy‐1H‐indole], the Ki was above 100 µM in assay [1], above 30 µM in assay [2], above 20 µM in assay [3] and 12.7 µM in assay [4]. Moreover, the hA1/hA2A in assay [4] was above 8. The hA3/hA2A in assay [4] is above 2.

For `Cc1cc(C)nc(N2CCN(C(=O)Cc3c(C)[nH]c4c(F)cc(Br)cc34)CC2)n1` [Compound 17, 2‐(5‐Bromo‐7‐fluoro‐2‐methyl‐1H‐indol‐3‐yl)‐1‐[4‐(4,6-dimethylpyrimidin‐2‐yl)piperazin‐1‐yl]ethan‐1‐one], the inhibition constant Ki in assay [1] was above 100 µM; in assay [2], above 100 µM; in assay [3] it was above 20 µM; in assay [4], above 100 µM.
